Measured values taken from patent publication US9597314B2, “Beta-lactamylalkanoic acids for treating premenstrual disorders” (AZEVAN PHARMACEUTICALS, INC., priority 2005, dated 2017).

Target: V1a (Homo sapiens, UniProt P37288)
Test: Human vasopression V1a receptor binding assay
Design: host or cells: CHO cells (hV1a cell line), whole adherent cells
Conditions: hV1a cell line (CHO); for IC50: 1 nM 3H-AVP, Table 17, read-out: V1a Binding Affinity (IC50 (nM)); for Ki: Table 18
Procedure: Human vasopression V1a receptor binding assay. A cell line expressing the human V1a receptor in CHO cells (henceforth referred to as the hV1a cell line) was obtained from Dr. Michael Brownstein, NIMH, Bethesda, Md., USA. The hV1a cDNA sequence is described by Thibonnier et al., Journal of Biological Chemistry, 269, 3304-3310 (1994), and the expression method was the same as described by Morel et al. (1992). The hV1a cell line was grown in alpha-MEM with 10% fetal bovine serum and 250 ug/ml G418 (Gibco, Grand Island, N.Y., USA). For competitive binding assay, hV1a cells were plated into 6-well culture plate at 1:10 dilution from a confluency flask, and maintained in culture for at least two days. Culture medium was then removed, cells were washed with 2 ml binding buffer (25 mM Hepes, 0.25% BSA, 1×DMEM, PH=7.0). To each well, 990 μl binding buffer containing 1 nM 3H-AVP was added, and followed by 10 μl series diluted Example compounds dissolved in DMSO. […] 100 nM cold AVP (Sigma) was used to assess non-specific binding. Cells were incubated for 45 minutes at 37° C., assay mixture was removed and each well was washed three times with PBS (pH=7.4). 1 ml 2% SDS was added per well and plates were let sit for 30 minutes. The whole content in a well was transferred to a scintillation vial. Each well was rinsed with 0.5 ml PBS which was then added to the corresponding vial. Scintillation fluid (Ecoscint, National Diagnostics, Atlanta, Ga.) was then added at 3 ml per vial. Samples were counted in a liquid scintillation counter (Beckman LS3801). IC50 values were calculated by Prism Curve fitting software.
All of the alkanedioic esters and amides exemplified in the foregoing examples dissolved in DMSO were tested in this assay. Binding curves were generated according to methods described by Thibonnier et al. (1994). [^3H]-AVP was added to the hV1a cell cultures followed by 10 fold dilutions of each test compound.

V1a, sequence (P37288 whole entry): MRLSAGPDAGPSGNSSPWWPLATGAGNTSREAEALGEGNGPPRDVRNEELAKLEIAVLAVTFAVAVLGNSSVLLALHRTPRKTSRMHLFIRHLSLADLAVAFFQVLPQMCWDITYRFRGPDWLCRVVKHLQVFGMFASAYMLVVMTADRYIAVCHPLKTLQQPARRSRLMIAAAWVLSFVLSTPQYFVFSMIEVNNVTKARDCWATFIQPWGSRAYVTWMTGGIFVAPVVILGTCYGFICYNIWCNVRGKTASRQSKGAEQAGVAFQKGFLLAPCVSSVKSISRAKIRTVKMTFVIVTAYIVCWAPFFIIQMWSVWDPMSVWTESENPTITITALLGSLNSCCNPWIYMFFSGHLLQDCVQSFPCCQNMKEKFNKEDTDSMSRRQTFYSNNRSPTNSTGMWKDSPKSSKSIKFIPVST

| SMILES | IC50 | Ki |
| --- | --- | --- |
| O=C(C[C@H](C(=O)NCc1cccc(C(F)(F)F)c1)N1C(=O)[C@@H](N2C(=O)OC[C@@H]2c2ccccc2)[C@H]1/C=C/c1ccccc1)NC1CCN(Cc2ccccc2)CC1 [Example 134C] | 9.1 nM | 5.58 nM |
| O=C(C(COCc1ccccc1)N1C(=O)[C@@H](N2C(=O)OC[C@@H]2c2ccccc2)[C@H]1/C=C/c1ccccc1)N1CCN(C2CCCCC2)CC1 (mixture of isomers) [Example 232D] | 2.04 nM | 1.25 nM |
| O=C(NC(c1ccccc1)c1ccccc1)[C@H](CCC(=O)N1CCN(C2CCCCC2)CC1)N1C(=O)[C@@H](N2C(=O)OC[C@@H]2c2ccccc2)[C@H]1/C=C/c1ccccc1 [Example 221K] | ~5 nM | – |
| O=C(CC[C@@H](C(=O)N[C@@H]1CCCc2ccccc21)N1C(=O)[C@@H](N2C(=O)OC[C@@H]2c2ccccc2)[C@H]1/C=C/c1ccccc1)NCCN1CCCCC1 [Example 221X] | 11.6 nM | 7.2 nM |
| CCCCN1CCN(C(=O)CC[C@H](C(=O)NCc2cccc(C(F)(F)F)c2)N2C(=O)[C@@H](N3C(=O)OC[C@@H]3c3ccccc3)[C@H]2/C=C/c2ccccc2)CC1 [Example 137] | – | 10.5 nM |
| O=C(NC1(c2ccc(F)cc2)CCCC1)[C@H](CCC(=O)N1CCN(C2CCCCC2)CC1)N1C(=O)[C@@H](N2C(=O)OC[C@@H]2c2ccccc2)[C@H]1/C=C/c1ccccc1 [Example 221I] | 12 nM | 7.4 nM |
| CC(C)N1CCN(C(=O)C(C(=O)NCc2cccc(C(F)(F)F)c2)N2C(=O)[C@@H](N3C(=O)OC[C@@H]3c3ccccc3)[C@H]2/C=C/c2ccccc2)CC1 (mixture of isomers) [Example 41] | – | 18.2 nM |
| O=C(CC[C@@H](C(=O)N[C@@H]1CCCc2ccccc21)N1C(=O)[C@@H](N2C(=O)OC[C@@H]2c2ccccc2)[C@H]1/C=C/c1ccccc1)NC1CN2CCC1CC2 (some centres unmarked) [Example 221AE] | ~50 nM | – |
| O=C(NCc1cc(C(F)(F)F)cc(C(F)(F)F)c1)[C@H](CCC(=O)N1CCN(C2CCCCC2)CC1)N1C(=O)[C@@H](N2C(=O)OC[C@@H]2c2ccccc2)[C@H]1/C=C/c1ccccc1 [Example 188] | 7.26 nM | – |
| O=C(NCc1cccc(C(F)(F)F)c1)[C@H](CCC(=O)N1CCN(Cc2ccccc2)CC1)N1C(=O)[C@@H](N2C(=O)OC[C@@H]2c2ccccc2)[C@H]1/C=C/c1ccccc1 [Example 95] | – | 1.08 nM |
| CC(C)N1CCN(C(=O)CCC(C(=O)NCc2cccc(C(F)(F)F)c2)N2C(=O)C(N3C(=O)OCC3c3ccccc3)C2C=Cc2ccccc2)CC1 (single isomer, unassigned) [Example 104] | – | 1.13 nM |
| O=C(NCc1cccc(C(F)(F)F)c1)[C@H](CCC(=O)N1CCN(CC2CCCCC2)CC1)N1C(=O)[C@@H](N2C(=O)OC[C@@H]2c2ccccc2)[C@H]1/C=C/c1ccccc1 [Example 120] | – | 0.46 nM |
| CCN1CCN(C(=O)CC[C@@H](C(=O)N[C@@H]2CCCc3ccccc32)N2C(=O)[C@@H](N3C(=O)OC[C@@H]3c3ccccc3)[C@H]2/C=C/c2ccccc2)CC1 [Example 221BD] | 2.7 nM | 1.66 nM |
| COc1cc(CNC(=O)[C@H](CCC(=O)N2CCN(C3CCCCC3)CC2)N2C(=O)[C@@H](N3C(=O)OC[C@@H]3c3ccccc3)[C@H]2/C=C/c2ccccc2)cc(OC)c1 [Example 201] | 10.5 nM | 6.43 nM |
| O=C(C[C@@H](C(=O)NCc1cccc(C(F)(F)F)c1)N1C(=O)[C@@H](N2C(=O)OC[C@@H]2c2ccccc2)[C@H]1/C=C/c1ccccc1)N[C@H]1CCN(Cc2ccccc2)C1 [Example 85] | – | 3.6 nM |
| O=C(NCc1cccc(C(F)(F)F)c1)[C@H](CCC(=O)N1CCC(CCN2CCCCC2)CC1)N1C(=O)[C@@H](N2C(=O)OC[C@@H]2c2ccccc2)[C@H]1/C=C/c1ccccc1 [Example 120A] | 16.2 nM | 9.9 nM |
| O=C(NCc1cccc(C(F)(F)F)c1)C(C(=O)N1CCN(C2CCCCC2)CC1)N1C(=O)[C@@H](N2C(=O)OC[C@@H]2c2ccccc2)[C@H]1/C=C/c1ccccc1 (mixture of isomers) [Example 42] | – | 26.4 nM |
| O=C(NC1CCCc2ccccc21)C(CCC(=O)N1CCN(C2CCCCC2)CC1)N1C(=O)C(N2C(=O)OCC2c2ccccc2)C1C=Cc1ccccc1 (single isomer, unassigned) [Example 215] | 0.61 nM | 0.38 nM |
| O=C(NCc1ccc(F)c(C(F)(F)F)c1)[C@H](CCC(=O)N1CCN(C2CCCCC2)CC1)N1C(=O)[C@@H](N2C(=O)OC[C@@H]2c2ccccc2)[C@H]1/C=C/c1ccccc1 [Example 178] | < 50 nM | – |
| O=C([C@@H](COCc1ccccc1)N1C(=O)[C@@H](N2C(=O)OC[C@@H]2c2ccccc2)[C@H]1/C=C/c1ccccc1)N1CCC(N2CCCCC2)CC1 [Example 232] | 1.37 nM | 0.84 nM |
| CCN1CCN(C(=O)CC[C@@H](C(=O)NCc2cccc(C(F)(F)F)c2)N2C(=O)[C@@H](N3C(=O)OC[C@@H]3c3ccccc3)[C@H]2/C=C/c2ccccc2)CC1 [Example 221AC] | < 10 nM | – |
| O=C(N[C@@H]1CCCc2ccccc21)[C@H](CCC(=O)N1CCN(CCCO)CC1)N1C(=O)[C@@H](N2C(=O)OC[C@@H]2c2ccccc2)[C@H]1/C=C/c1ccccc1 [Example 221BI] | 56 nM | 35 nM |

Continued, values first:

| IC50 | Ki | SMILES |
| --- | --- | --- |
| 1.46 nM | 0.89 nM | O=C(NCc1cc(Cl)cc(Cl)c1)[C@H](CCC(=O)N1CCN(C2CCCCC2)CC1)N1C(=O)[C@@H](N2C(=O)OC[C@@H]2c2ccccc2)[C@H]1/C=C/c1ccccc1 [Example 174] |
| 0.34 nM | 0.21 nM | CN(Cc1cccc(C(F)(F)F)c1)C(=O)[C@H](CCC(=O)N1CCN(C2CCCCC2)CC1)N1C(=O)[C@@H](N2C(=O)OC[C@@H]2c2ccccc2)[C@H]1/C=C/c1ccccc1 [Example 205] |
| < 10 nM | – | COc1cccc(CNC(=O)[C@H](CCC(=O)N2CCN(C3CCCCC3)CC2)N2C(=O)[C@@H](N3C(=O)OC[C@@H]3c3ccccc3)[C@H]2/C=C/c2ccccc2)c1 [Example 183] |
| 4.56 nM | 2.79 nM | O=C(NCc1cc(Cl)ccc1Cl)[C@H](CCC(=O)N1CCN(C2CCCCC2)CC1)N1C(=O)[C@@H](N2C(=O)OC[C@@H]2c2ccccc2)[C@H]1/C=C/c1ccccc1 [Example 175] |
| < 10 nM | – | O=C(NCc1cccc(F)c1)[C@H](CCC(=O)N1CCN(C2CCCCC2)CC1)N1C(=O)[C@@H](N2C(=O)OC[C@@H]2c2ccccc2)[C@H]1/C=C/c1ccccc1 [Example 184] |
| 16.3 nM | 10 nM | O=C(NCc1ccccn1)[C@H](CCC(=O)N1CCN(C2CCCCC2)CC1)N1C(=O)[C@@H](N2C(=O)OC[C@@H]2c2ccccc2)[C@H]1/C=C/c1ccccc1 [Example 208] |
| 2.71 nM | 1.66 nM | Cc1cccc(CN(C)C(=O)[C@H](CCC(=O)N2CCN(C3CCCCC3)CC2)N2C(=O)[C@@H](N3C(=O)OC[C@@H]3c3ccccc3)[C@H]2/C=C/c2ccccc2)c1 [Example 221A] |
| 20.2 nM | 12.4 nM | CN(Cc1cc(Cl)cc(Cl)c1)C(=O)[C@H](CCC(=O)N1CCN(C2CCCCC2)CC1)N1C(=O)[C@@H](N2C(=O)OC[C@@H]2c2ccccc2)[C@H]1/C=C/c1ccccc1 [Example 221E] |
| 5.08 nM | 3.11 nM | O=C(NCCc1ccccc1)[C@H](CCC(=O)N1CCN(C2CCCCC2)CC1)N1C(=O)[C@@H](N2C(=O)OC[C@@H]2c2ccccc2)[C@H]1/C=C/c1ccccc1 [Example 200] |
| 0.61 nM | – | O=C(NCc1cccc(Cl)c1Cl)[C@H](CCC(=O)N1CCN(C2CCCCC2)CC1)N1C(=O)[C@@H](N2C(=O)OC[C@@H]2c2ccccc2)[C@H]1/C=C/c1ccccc1 [Example 176] |
| 1.52 nM | – | O=C(NCc1ccccc1C(F)(F)F)[C@H](CCC(=O)N1CCN(C2CCCCC2)CC1)N1C(=O)[C@@H](N2C(=O)OC[C@@H]2c2ccccc2)[C@H]1/C=C/c1ccccc1 [Example 182] |
| 5.13 nM | 3.14 nM | O=C(N[C@H]1CCc2ccccc21)[C@H](CCC(=O)N1CCN(C2CCCCC2)CC1)N1C(=O)[C@@H](N2C(=O)OC[C@@H]2c2ccccc2)[C@H]1/C=C/c1ccccc1 [Example 221R] |
| 4.5 nM | 2.78 nM | O=C(NCc1cccc(OC(F)(F)F)c1)[C@H](CCC(=O)N1CCN(C2CCCCC2)CC1)N1C(=O)[C@@H](N2C(=O)OC[C@@H]2c2ccccc2)[C@H]1/C=C/c1ccccc1 [Example 172] |
| < 10 nM | – | Cc1ccccc1CNC(=O)[C@H](CCC(=O)N1CCN(C2CCCCC2)CC1)N1C(=O)[C@@H](N2C(=O)OC[C@@H]2c2ccccc2)[C@H]1/C=C/c1ccccc1 [Example 192] |
| 0.78 nM | 0.48 nM | O=C(NCc1cccs1)[C@H](CCC(=O)N1CCN(C2CCCCC2)CC1)N1C(=O)[C@@H](N2C(=O)OC[C@@H]2c2ccccc2)[C@H]1/C=C/c1ccccc1 [Example 213] |
| 2.41 nM | 1.48 nM | CN(Cc1cccc(Br)c1)C(=O)[C@H](CCC(=O)N1CCN(C2CCCCC2)CC1)N1C(=O)[C@@H](N2C(=O)OC[C@@H]2c2ccccc2)[C@H]1/C=C/c1ccccc1 [Example 221D] |
